Where no end group is shown, it is not given here.
Tests used:
TNF-α [1] = experiment: TNF-α RT-PCR in LPS-stimulated splenocytes; format: cell-based, mice; settings: mouse splenocytes, LPS stimulator, peptide 0.2, 2, 20 ug/ml
Procedure: [The procedure below names another target; the source lists this target under the same test.] After 6-7-week-old mice were sacrificed to obtain spleen, the spleen was crushed using a cell filter, and centrifuged with serum-free RPMI 1640 medium. The upper layer was discarded, and for removal of red blood cells (RBC), RBC lysis buffer was used.
RBC was removed twice, followed by washing with serum-free RPMI1640 medium, and then an appropriate amount of serum-free RPMI1640 medium was added.
The cells were counted, and seeded in 96-well plate (1×10^6 cells/well) and 24-well plate (1×10^7 cells/dish). The next day, the cells were treated with respective peptide samples (0.2, 2, 20 ug/ml) and the stimulator LPS. Here, the experiment was performed by adjusting the time point.
Total RNA was extracted using Easy Blue (Intron). For synthesis of single-stranded DNA from RNA, RT premix (Intron) was used, and 3 ug of RNA, 2 ug of random hexamer, and DEPC-treated water were added thereto to reach a total volume of 20 ul, followed by reaction for 5 minutes at 65° C. and 1 hour at 42° C. Heating was again conducted at 95° C. for 5 minutes to prepare cDNA.
PCR was conducted by mixing 3 ul of cDNA and 10 pmole primers specific to CGI 58 gene with PCR premix (Intron). PCR conditions were: 94° C. for 30 seconds, 55-56° C. for 30 seconds, and 72° C. for 30 seconds. Genes were analyzed in the conditions in which the PCR results could be exponentially amplified. 5 ul of PCR product was obtained, electrophoresed on 1% agarose gel, and stained with ethidium bromide.

IL-2 = IL-2 RT-PCR in LPS-stimulated splenocytes; format: cell-based, mice; settings: mouse splenocytes, LPS stimulator, peptide 0.2, 2, 20 ug/ml
COX2 = experiment: Western blot of COX2 in splenocytes; format: cell-based, mice; settings: peptide 0.2-20 ug/ml, 24 hours
Procedure: The splenocytes obtained in example 1 were seeded in 24-well plate at cell density of 1×10^7 cells/well. Then, after incubation overnight, the cells were treated with the peptides of SEQ ID NO: 1, SEQ ID NO: 2 and SEQ ID NO: 3 with different concentrations (0.2-20 ug/ml), followed by incubation in an incubator at 37° C. for 24 hours, and then the cells were treated with cell lysis buffer to secure lysate, followed by protein quantification. Then, western blotting with respect to the inflammation inducing factor COX2 was conducted, and the results are shown in FIGS. 2a to 2f.

TNF-α [2] = experiment: ELISA (splenocytes), TNF-α secretion; format: cell-based, mice; settings: LPS stimulator, 48 hours
Procedure: (§1) The splenocytes treated with the peptide samples and the stimulator LPS in example 1 were incubated for 48 hours, and then the culture media were collected. The obtained media were subjected to an experiment using an ELISA kit (R&D system) for cytokines (TNF-α and INF-γ) to be investigated.

INF-γ = experiment: ELISA (splenocytes), INF-γ secretion; format: cell-based, mice; settings: LPS stimulator, 48 hours
Procedure: as §1

TNF-α [3] = experiment: ELISA (Raw264.7 cells), TNF-α secretion; format: cell-based; settings: pre-treated at 0.2, 2, 20 ug/ml, then LPS, 24 hours
Procedure: Raw264.7 cells were seeded at 1×10^6 cells/48-well, and incubated overnight. The cells were pre-treated with samples to be investigated at 0.2, 2, and 20 ug/ml, and after 30 minutes, the cells were treated with LPS. Incubation was conducted at the scheduled time point. After 24 hours, the culture media were collected, and the obtained media were subjected to an experiment using an ELISA kit (R&D system) for cytokine (TNF-α) to be investigated.

Raw264.7 cells = experiment: FACS intracellular ROS assay (DCF-DA); format: cell-based; settings: pre-treated at 1, 10, 50 ug/ml, then LPS
Procedure: Raw264.7 cells were seeded at 1×10^6 cells/6-well, and incubated overnight. The cells were pre-treated with samples to be investigated at 1, 10, and 50 ug/ml, and after 30 minutes, the cells were treated with LPS. The cells were incubated according to the scheduled time point, and then 30 minutes after the treatment with DCF-DH, the oxidation activity was measured by the degree of fluorescence using FACS.

CD3+ and CD25+ cells = experiment: Activation T cell analysis (FACS), CD3 and CD25 markers; format: cell-based, mice; settings: splenocytes, LPS stimulator, 24 hours
Procedure: The cells were treated with the peptide samples and the stimulator LPS as described in example 1, and after 24 hours, the cells were treated with antibody (CD3 and CD25) activation T cell markers for 30 minutes, followed by washing twice with PBS, and then FACS was conducted.

## Asp-Asn-Cys-Leu-Arg (DNCLR) [SEQ ID NO: 2]
TNF-α [1]
  expression of TNF-α (RT-PCR): tend to decrease
IL-2
  expression of IL-2 (RT-PCR): tend to decrease
COX2
  expression of COX2 (western blot): reduced
TNF-α [2]
  secretion of TNF-α in splenocytes (ELISA): decreased
INF-γ
  secretion of INF-γ in splenocytes (ELISA): decreased
TNF-α [3]
  secretion of TNF-α in RAW264.7 cells (ELISA): tended to decrease
Raw264.7 cells
  ROS production: reduced
CD3+ and CD25+ cells
  CD3+ and CD25+ cells (FACS): decreased

## GVQHQASPY [SEQ ID NO: 3]
TNF-α [1]
  expression of TNF-α (RT-PCR): tend to decrease
IL-2
  expression of IL-2 (RT-PCR): tend to decrease
COX2
  expression of COX2 (western blot): reduced
TNF-α [3]
  secretion of TNF-α in RAW264.7 cells (ELISA): decreased
Raw264.7 cells
  ROS production: reduced
CD3+ and CD25+ cells
  CD3+ and CD25+ cells (FACS): decreased

## Thr-Met-Arg-Asp (TMRD) [SEQ ID NO: 1]
TNF-α [1]
  expression of TNF-α (RT-PCR): tend to decrease
IL-2
  expression of IL-2 (RT-PCR): tend to decrease
COX2
  expression of COX2 (western blot): reduced
TNF-α [2]
  secretion of TNF-α in splenocytes (ELISA): decreased
INF-γ
  secretion of INF-γ in splenocytes (ELISA): decreased
TNF-α [3]
  secretion of TNF-α in RAW264.7 cells (ELISA): tended to decrease
Raw264.7 cells
  ROS production: reduced
CD3+ and CD25+ cells
  CD3+ and CD25+ cells (FACS): decreased

Source: patent US10925923B2, “Peptide having anti-inflammatory activity, and use thereof” (CAREGEN CO., LTD., priority 2016, dated 2021)
